Here are results for eleven molecules from patent US10301295B2, “Herbicidal compounds” (Syngenta Participations AG, priority 2014, dated 2019).

Like-named read-outs stand apart in the source and are kept apart here.

Holding throughout (type): in vivo
The subject of assay [1] is wheat. In words: Post-emergence herbicidal activity against cereal crops (wheat) +/- safener, crop selectivity. Particulars: 100%=total damage to plant, 0%=no damage; for Post-emergence herbicidal activity against wheat (percentage phytotoxicity), +CQC: 250 g/ha, plus safener cloquintocet-mexyl (CQC) applied at 50 g/ha; for percent phytotoxicity (crop damage) to wheat at 250 g/ha: Triticum aestivum, 360 h, without safener, read-out: Post-emergence herbicidal activity against wheat (percentage phytotoxicity), Wheat - CQC. A digest of the protocol:
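Test plants raised in pots in a glasshouse (24/18 °C warm or 20/16 °C cool species day/night, 16 h light, 65% humidity) and treated post-emergence about 12 days after sowing. Visual percentage phytotoxicity scored 15 days after application (0% = no damage, 100% = total damage).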

Assay [2] relates to Lolium perenne (LOLPE). In words: Glasshouse assay for herbicidal activity, pre-/post-emergence (percentage phytotoxicity). Particulars: Lolium perenne, Rate 250 g/ha, 100%=total damage, 0%=no damage. A digest of the protocol:
(§1)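 Seeds sown in standard soil in pots, grown 1 day (pre-emergence) or ~12 days (post-emergence) before treatment. Glasshouse: warm species 24/18 °C, cool species 20/16 °C day/night, 16 h light, 65% humidity, watered twice daily. Visual phytotoxicity scored 15DAA (post) or 20DAA (pre); 0% none, 100% total damage.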

In assay [3] the test system is Avena fatua (AVEFA). Described as above. Particulars: Avena fatua, Rate 250 g/ha, 100%=total damage, 0%=no damage. In outline:
as §1

Assay [4] concerns Echinochloa crus-galli (ECHCG). The assay is described as above. The following applies: Echinochloa crus-galli, Rate 250 g/ha, 100%=total damage, 0%=no damage. A digest of the protocol: as §1
Assay [5] deals with Alopecurus myosuroides (ALOMY). The assay is described as above. Particulars: Alopecurus myosuroides, Rate 250 g/ha, 100%=total damage, 0%=no damage. In outline: as §1
Setting [6] is: post-emergence, 360 h, post-emergence, visual assessment 15 DAA, read-out: Post-emergence herbicidal activity (percentage phytotoxicity), LOLPE POST.
Where [7] appears, read: pre-emergence, 480 h, pre-emergence, visual assessment 20 DAA, read-out: Pre-emergence herbicidal activity (percentage phytotoxicity), LOLPE PRE.
The mark [8] stands for this setting: post-emergence, 360 h, post-emergence, visual assessment 15 DAA, read-out: Post-emergence herbicidal activity (percentage phytotoxicity), AVEFA POST.
Setting [9] is: pre-emergence, 480 h, pre-emergence, visual assessment 20 DAA, read-out: Pre-emergence herbicidal activity (percentage phytotoxicity), AVEFA PRE.
The mark [10] stands for this setting: post-emergence, 360 h, post-emergence, visual assessment 15 DAA, read-out: Post-emergence herbicidal activity (percentage phytotoxicity), ECHCG POST.
The mark [11] stands for this setting: pre-emergence, 480 h, pre-emergence, visual assessment 20 DAA, read-out: Pre-emergence herbicidal activity (percentage phytotoxicity), ECHCG PRE.
[12] abbreviates: 360 h, post-emergence, visual assessment 15 DAA, read-out: Post-emergence herbicidal activity (percentage phytotoxicity), ALOMY POST.
The mark [13] stands for this setting: 480 h, pre-emergence, visual assessment 20 DAA, read-out: Pre-emergence herbicidal activity (percentage phytotoxicity), ALOMY PRE.

Take `Cc1cc(C)c(C2C(=O)CC(CCNS(=O)(=O)c3ccc(OC(F)(F)F)cc3)C2=O)c(C)c1` (centres unmarked) [Compound A85]: in assay [1], the “Post-emergence herbicidal activity against wheat (percentage phytotoxicity), +CQC” value stood at 10%. Moreover, in assay [1], the percent phytotoxicity (crop damage) to wheat at 250 g/ha stood at 20%. In addition, the pest or weed control at 250 g/ha in assay [2] (setting [6]) came out at 50%; in assay [2] (setting [7]) it was 80%; in assay [3] (setting [8]), 80%; in assay [3] (setting [9]) it was 80%; in assay [4] (setting [10]), 40%; in assay [4] (setting [11]) it was 70%. The pest or weed control at 250 g/ha in assay [5] (setting [12]) was 60%; in assay [5] (setting [13]), 70%.
Consider `Cc1ccc(C(=O)NC(=O)NCCC2CC(=O)C(c3c(C)cc(C)cc3C)C2=O)cc1` (centres unmarked) [Compound A55], for which, in assay [1], the “Post-emergence herbicidal activity against wheat (percentage phytotoxicity), +CQC” value worked out at 0%. The percent phytotoxicity (crop damage) to wheat at 250 g/ha in assay [1] turned out to be 30%. Besides, the pest or weed control at 250 g/ha in assay [2] (setting [6]) is 90%; in assay [2] (setting [7]), 70%; in assay [3] (setting [8]) it was 0%; in assay [3] (setting [9]) it was 10%; in assay [4] (setting [10]), 80%; in assay [4] (setting [11]), 80%. Also, the pest or weed control at 250 g/ha in assay [5] (setting [12]) worked out at 70%; in assay [5] (setting [13]), 60%.
On to `Cc1cc(C)c(C2C(=O)CC(CCNC(=O)NC(=O)c3ccccc3)C2=O)c(C)c1` (centres unmarked) [Compound A46], for which the “Post-emergence herbicidal activity against wheat (percentage phytotoxicity), +CQC” value in assay [1] was found to be 70%. Besides, the percent phytotoxicity (crop damage) to wheat at 250 g/ha in assay [1] stood at 80%. The pest or weed control at 250 g/ha in assay [2] (setting [6]) came out at 100%; in assay [2] (setting [7]) it was 70%; in assay [3] (setting [8]), 90%; in assay [3] (setting [9]) it was 30%; in assay [4] (setting [10]), 100%; in assay [4] (setting [11]), 60%. For the same molecule, the values for the pest or weed control at 250 g/ha in assay [5] (setting [12]) and in assay [5] (setting [13]) were 70% and 30%, respectively.
In the case of `Cc1cc(C)c(C2C(=O)CC(CCNS(=O)(=O)c3cccs3)C2=O)c(C)c1` (centres unmarked) [Compound A82], the “Post-emergence herbicidal activity against wheat (percentage phytotoxicity), +CQC” value in assay [1] was 0%. In assay [1], the percent phytotoxicity (crop damage) to wheat at 250 g/ha came to 0%. Also, the pest or weed control at 250 g/ha in assay [2] (setting [6]) worked out at 50%; in assay [2] (setting [7]), 70%; in assay [3] (setting [8]), 30%; in assay [3] (setting [9]), 0%; in assay [4] (setting [10]), 20%; in assay [4] (setting [11]), 30%. Besides, the pest or weed control at 250 g/ha was 40% in assay [5] (setting [12]) and 70% in assay [5] (setting [13]).
In the case of `Cc1cc(C)c(C2C(=O)CC(CCNC(=O)NC(=O)c3ccccc3C(F)(F)F)C2=O)c(C)c1` (centres unmarked) [Compound A60], the “Post-emergence herbicidal activity against wheat (percentage phytotoxicity), +CQC” value in assay [1] was 70%. Besides, in assay [1], the percent phytotoxicity (crop damage) to wheat at 250 g/ha came out at 80%. Moreover, the pest or weed control at 250 g/ha came out at 90% in assay [2] (setting [6]); 80% in assay [2] (setting [7]); 100% in assay [3] (setting [8]); 80% in assay [3] (setting [9]); 80% in assay [4] (setting [10]); 70% in assay [4] (setting [11]). For the same molecule, the pest or weed control at 250 g/ha was determined as 100% in assay [5] (setting [12]) and 70% in assay [5] (setting [13]).
Turning to `Cc1cc(C)c(C2C(=O)CC(CCNC(=O)NC(=O)c3cc(F)ccc3C(F)(F)F)C2=O)c(C)c1` (centres unmarked) [Compound A63], the “Post-emergence herbicidal activity against wheat (percentage phytotoxicity), +CQC” value in assay [1] amounted to 80%. The percent phytotoxicity (crop damage) to wheat at 250 g/ha in assay [1] turned out to be 80%. Moreover, the pest or weed control at 250 g/ha in assay [2] (setting [6]) amounted to 90%; in assay [2] (setting [7]), 80%; in assay [3] (setting [8]), 90%; in assay [3] (setting [9]), 40%; in assay [4] (setting [10]), 80%; in assay [4] (setting [11]), 70%. The pest or weed control at 250 g/ha in assay [5] (setting [12]) was 100%; in assay [5] (setting [13]), 90%.
Turning to `Cc1cc(C)c(C2C(=O)CC(CCNC(=O)C3=NOC(C)(C)C3)C2=O)c(C)c1` (centres unmarked) [Compound A40, N-[2-[2,4-dioxo-3-(2,4,6-trimethylphenyl)cyclopentyl]ethyl]-5,5-dimethyl-4H-isoxazole-3-carboxamide], in assay [1], the “Post-emergence herbicidal activity against wheat (percentage phytotoxicity), +CQC” value worked out at 80%. Moreover, the percent phytotoxicity (crop damage) to wheat at 250 g/ha in assay [1] was 90%. For the same molecule, the pest or weed control at 250 g/ha in assay [2] (setting [6]) came to 90%; in assay [2] (setting [7]), 100%; in assay [3] (setting [8]), 100%; in assay [3] (setting [9]), 100%; in assay [4] (setting [10]), 100%; in assay [4] (setting [11]) it was 100%. Further, the pest or weed control at 250 g/ha was determined as 100% in assay [5] (setting [12]) and 90% in assay [5] (setting [13]).
Turning to `Cc1cc(C)c(C2C(=O)CC(CCNC(=O)Nc3ccccn3)C2=O)c(C)c1.Cl` (centres unmarked) [Compound A3], the “Post-emergence herbicidal activity against wheat (percentage phytotoxicity), +CQC” value in assay [1] was 60%. Further, the percent phytotoxicity (crop damage) to wheat at 250 g/ha in assay [1] is 90%. The pest or weed control at 250 g/ha in assay [2] (setting [6]) was determined as 100%; in assay [2] (setting [7]) it was 90%; in assay [3] (setting [8]), 90%; in assay [3] (setting [9]), 80%; in assay [4] (setting [10]), 100%; in assay [4] (setting [11]) it was 100%. Also, the pest or weed control at 250 g/ha in assay [5] (setting [12]) and in assay [5] (setting [13]) was 100% in each case.
For `Cc1cc(C)c(C2C(=O)CC(CCNS(=O)(=O)C(C)C)C2=O)c(C)c1` (centres unmarked) [Compound A77], the “Post-emergence herbicidal activity against wheat (percentage phytotoxicity), +CQC” value in assay [1] is on record as 10%. The percent phytotoxicity (crop damage) to wheat at 250 g/ha in assay [1] amounted to 80%. Moreover, the pest or weed control at 250 g/ha is 80% in assay [2] (setting [6]); 80% in assay [2] (setting [7]); 80% in assay [3] (setting [8]); 70% in assay [3] (setting [9]); 70% in assay [4] (setting [10]); 70% in assay [4] (setting [11]). For the same molecule, the pest or weed control at 250 g/ha amounted to 80% in assay [5] (setting [12]) and 100% in assay [5] (setting [13]).
Regarding `Cc1cc(C)c(C2C(=O)CC(CCNC(=O)NC(=O)c3ccc(C(F)(F)F)c(F)c3)C2=O)c(C)c1` (centres unmarked) [Compound A61], the “Post-emergence herbicidal activity against wheat (percentage phytotoxicity), +CQC” value in assay [1] was found to be 40%. The percent phytotoxicity (crop damage) to wheat at 250 g/ha in assay [1] was found to be 70%. Further, the pest or weed control at 250 g/ha in assay [2] (setting [6]) amounted to 70%; in assay [2] (setting [7]), 40%; in assay [3] (setting [8]), 0%; in assay [3] (setting [9]), 30%; in assay [4] (setting [10]) it was 70%; in assay [4] (setting [11]), 30%. For the same molecule, the pest or weed control at 250 g/ha in assay [5] (setting [12]) stood at 40%; in assay [5] (setting [13]), 20%.
`Cc1cc(C)c(C2C(=O)CC(CCNC(=O)N3CCOCC3)C2=O)c(C)c1` (centres unmarked) [Compound A47]: in assay [1], the “Post-emergence herbicidal activity against wheat (percentage phytotoxicity), +CQC” value came to 0%. Moreover, the percent phytotoxicity (crop damage) to wheat at 250 g/ha in assay [1] was 50%. In addition, the pest or weed control at 250 g/ha in assay [2] (setting [6]) worked out at 30%; in assay [2] (setting [7]), 50%; in assay [3] (setting [8]), 70%; in assay [3] (setting [9]) it was 0%; in assay [4] (setting [10]), 60%; in assay [4] (setting [11]), 80%. For the same molecule, the pest or weed control at 250 g/ha in assay [5] (setting [12]) and in assay [5] (setting [13]) was 60% throughout.
